Test results published in ChEMBL document CHEMBL1201862, “PubChem BioAssay data set” (2004).
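Interpolation was linear, between the two tested concentrations surrounding the appropriate level; five concentrations were tested over 48 hours in 96-well plates. GI50 is the concentration that inhibits growth by half.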 The source made the active and inactive calls. Rule as the data show it: active = GI50 up to about 1.1 µM and inactive = higher.

What was measured:
Assay in all cases: NCI anticancer screen, dose series, 48 h
[1] = tested on: KM12
[2] = tested on: HT-29
[3] = tested on: SK-MEL-28
[4] = tested on: 786-0
[5] = tested on: SNB-75
[6] = tested on: A498
[7] = tested on: MOLT-4
[8] = tested on: UACC-257
[9] = tested on: CCRF-CEM
[10] = tested on: SW-620
[11] = tested on: TK-10
[12] = tested on: ACHN
[13] = tested on: NCI-H23
[14] = tested on: SK-OV-3
[15] = tested on: BT-549
[16] = tested on: SNB-19
[17] = tested on: SK-MEL-5
[18] = tested on: OVCAR-3
[19] = tested on: RPMI-8226
[20] = tested on: HCC 2998

Measured: GI50

CCOC(=O)C1(C/C=C/CBr)CCc2ccccc2C1=O (centres undefined)
inactive: [1] 15.5 µM | [2] 21.9 µM | [3] 17.5 µM | [4] 16.2 µM | [5] 10.4 µM | [6] 18.5 µM | [7] 9.1 µM | [8] 15.9 µM | [9] 5.25 µM | [10] 14.5 µM | [11] 10.4 µM | [12] 13.6 µM | [13] 16.8 µM | [14] 19 µM | [15] 16.7 µM | [16] 14.4 µM | [17] 12 µM

CCOC(=O)/C(=C\NC(C)(C)C)c1nc2ccccc2o1
inactive: [1] 33.3 µM | [2] 27.7 µM | [3] 36.5 µM | [4] 24.6 µM | [5] 31.9 µM | [6] 27.9 µM | [18] 35.4 µM | [8] 20.1 µM | [9] 16.3 µM | [10] 49.7 µM | [11] 27.2 µM | [12] 27.6 µM | [13] 34.9 µM | [19] 22.2 µM | [14] 92 µM | [15] 26.7 µM | [16] 64 µM | [17] 12.8 µM

COC(=O)C1=C(O)c2ccc(Cl)cc2S(=O)(=O)N1C
inactive: [1] > 100 µM | [2] > 100 µM | [3] > 100 µM | [4] > 100 µM | [6] > 100 µM | [7] > 100 µM | [8] 93.3 µM | [20] > 100 µM | [9] 39.4 µM | [10] 80.2 µM | [11] > 100 µM | [12] > 100 µM | [13] 58.9 µM | [19] 80.7 µM | [14] > 100 µM | [15] > 100 µM | [16] 60.4 µM | [17] 97.1 µM

CN1C(=O)C23CCCCC2CC1(c1ccccc1)S3 (centres undefined)
inactive: [1] > 100 µM | [2] 73.8 µM | [3] > 100 µM | [4] > 100 µM | [6] > 100 µM | [7] 38.3 µM | [18] 50.9 µM | [8] 18.3 µM | [10] > 100 µM | [11] 41.2 µM | [12] > 100 µM | [13] 66.8 µM | [19] 49.8 µM | [14] > 100 µM | [15] 99.3 µM | [16] > 100 µM | [17] 72.3 µM

CCOc1cc(-c2nc3ccccn3c2/N=C/c2cc([N+](=O)[O-])cc([N+](=O)[O-])c2O)ccc1O
inactive: [1] > 100 µM | [2] > 100 µM | [3] > 100 µM | [4] > 100 µM | [5] 88.1 µM | [6] > 100 µM | [7] > 100 µM | [18] > 100 µM | [8] > 100 µM | [9] 45 µM | [10] > 100 µM | [11] > 100 µM | [12] > 100 µM | [13] > 100 µM | [19] > 100 µM | [14] > 100 µM | [15] > 100 µM | [16] > 100 µM | [17] > 100 µM

N#CCCCCC12C3C(=O)N(c4ccccc4)C(=O)C3ON1O[C@@H]1C(=O)N(c3ccccc3)C(=O)[C@@H]12 (some centres undefined)
inactive: [1] > 100 µM | [2] > 100 µM | [3] > 100 µM | [4] > 100 µM | [6] > 100 µM | [7] > 100 µM | [18] > 100 µM | [8] > 100 µM | [20] > 100 µM | [9] > 100 µM | [10] > 100 µM | [11] > 100 µM | [12] > 100 µM | [13] > 100 µM | [14] > 100 µM | [15] > 100 µM | [16] > 100 µM | [17] > 100 µM

Cn1c(COC(=O)NC2CCCCC2)c(COC(=O)NC2CCCCC2)c2ccc3ccccc3c21
inactive: [1] 30 µM | [2] 53.6 µM | [4] 13.3 µM | [5] 26.1 µM | [6] 17.5 µM | [7] 9.31 µM | [18] 58.3 µM | [8] 93.1 µM | [9] 9.77 µM | [10] 32.4 µM | [11] 33.7 µM | [12] 17.2 µM | [13] 21.8 µM | [19] 49.2 µM | [14] > 100 µM | [15] 55.3 µM | [16] 55.7 µM | [17] 31.7 µM

CC1(C)Oc2ccc3c(=O)c4ccccc4oc3c2C1C(=O)O (centres undefined)
inactive: [2] > 100 µM | [4] > 100 µM | [6] > 100 µM | [7] > 100 µM | [18] > 100 µM | [8] > 100 µM | [20] > 100 µM | [9] > 100 µM | [11] > 100 µM | [13] > 100 µM | [14] > 100 µM | [15] > 100 µM | [17] > 100 µM

COC(=O)C1(O)C(c2ccccc2)NC2(C)CCCC21 (centres undefined)
inactive: [1] > 100 µM | [3] > 100 µM | [4] > 100 µM | [5] > 100 µM | [6] > 100 µM | [7] > 100 µM | [8] > 100 µM | [9] > 100 µM | [10] > 100 µM | [11] > 100 µM | [12] > 100 µM | [13] > 100 µM | [14] > 100 µM | [15] > 100 µM | [16] > 100 µM | [17] > 100 µM

C=C1C(=O)C([Si](C)(C)C)=C2C=C(C)C3(CC3)C12C (centres undefined)
inactive: [1] 38.3 µM | [2] 18.2 µM | [3] 58.1 µM | [4] 95.3 µM | [6] 31 µM | [7] 1.12 µM | [18] 29.2 µM | [8] 17.9 µM | [20] 38.9 µM | [9] 1.19 µM | [10] 59.7 µM | [11] 67.1 µM | [12] 61.1 µM | [13] 46.6 µM | [19] 3.88 µM | [15] 25.4 µM | [16] > 100 µM | [17] 19.4 µM

CCNc1nc(N)c(C(=O)c2ccc(Cl)cc2)s1
inactive: [1] 30.3 µM | [2] 27 µM | [3] 76.6 µM | [4] 39.9 µM | [6] 20.8 µM | [7] 27.4 µM | [18] 19.9 µM | [8] 71 µM | [9] 5.75 µM | [10] 31.2 µM | [11] 14.3 µM | [12] 23.7 µM | [13] 45.6 µM | [19] 30.3 µM | [14] 29.9 µM | [15] 40.3 µM | [16] 18.9 µM | [17] 27.7 µM

O=C(O)C1C2C=CC(O2)C1C(=O)NCc1ccccn1 (centres undefined)
inactive: [1] > 100 µM | [2] > 100 µM | [3] > 100 µM | [4] > 100 µM | [5] > 100 µM | [6] > 100 µM | [7] > 100 µM | [18] > 100 µM | [8] > 100 µM | [9] > 100 µM | [10] > 100 µM | [11] > 100 µM | [12] > 100 µM | [13] > 100 µM | [19] > 100 µM | [14] > 100 µM | [15] > 100 µM | [16] > 100 µM | [17] > 100 µM
